Columns and labels:
human RORγt [1] = target: T1, human RORγt (Homo sapiens, UniProt P51449); experiment: RORE Luciferase/RORγt transactivation assay (IL-17 promoter luciferase reporter in COS-7 cells); assay type: cell-based; design: V5-His (named only through the vector pcDNA3.1D/V5-His-TOPO); expressed in transfected cells; host or cells: COS-7 (monkey kidney); settings: RORγt activity inhibition, luciferase activity in transfected COS-7 cells, 20 h
T1 sequence (P51449 1-497 isoform P51449-2): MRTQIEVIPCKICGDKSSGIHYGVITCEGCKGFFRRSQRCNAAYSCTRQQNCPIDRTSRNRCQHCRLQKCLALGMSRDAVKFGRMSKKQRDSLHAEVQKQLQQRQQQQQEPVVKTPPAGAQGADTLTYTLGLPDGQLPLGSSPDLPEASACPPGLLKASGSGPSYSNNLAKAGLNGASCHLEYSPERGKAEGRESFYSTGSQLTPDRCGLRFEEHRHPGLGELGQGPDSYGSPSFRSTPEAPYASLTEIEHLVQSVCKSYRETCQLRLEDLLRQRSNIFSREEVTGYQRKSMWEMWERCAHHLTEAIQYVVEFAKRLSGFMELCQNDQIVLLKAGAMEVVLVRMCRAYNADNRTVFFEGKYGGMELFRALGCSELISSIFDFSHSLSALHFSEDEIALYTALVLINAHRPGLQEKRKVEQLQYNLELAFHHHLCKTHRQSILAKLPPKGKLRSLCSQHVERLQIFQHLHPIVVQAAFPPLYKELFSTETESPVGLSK
In short: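 COS-7 cells co-transfected with human RORγt and luciferase reporter driven by 4.3 kb IL-17 promoter with CNS enhancer, seeded in serum-free, phenol red-free DMEM. Compounds added at 0.3% DMSO final; luciferase read by Steady-Glo luminescence. IC50 (μM) and Emax (%) reported.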

[2] = target: T2, RORγt ligand-binding domain (RORγt-LBD) (Homo sapiens, UniProt P51449); experiment: Time-resolved FRET (TR-FRET) RORγt coactivator assay (RIP140 peptide displacement); assay type: biochemical; settings: ligand-dependent coactivator-RORγt binding
T2 construct: 20 nM recombinantly expressed RORγ-LBD fused to GST
T2 sequence (P51449 269-508 limits assumed): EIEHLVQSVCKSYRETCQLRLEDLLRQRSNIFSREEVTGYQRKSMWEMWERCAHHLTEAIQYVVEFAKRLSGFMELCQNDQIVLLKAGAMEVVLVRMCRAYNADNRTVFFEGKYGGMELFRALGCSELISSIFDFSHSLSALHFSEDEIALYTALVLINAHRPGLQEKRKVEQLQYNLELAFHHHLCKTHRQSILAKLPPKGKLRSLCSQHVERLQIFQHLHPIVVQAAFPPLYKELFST
In short: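 GST-tagged RORγt-LBD (20 nM) with 30 nM biotinylated RIP140 peptide, 1 nM streptavidin-terbium and 20 nM d2-anti-GST in CHAPS buffer with DTT, EDTA, BSA; 1% DMSO. Compounds 0.3 nM–30 μM, 2 h dark, room temperature. Coactivator displacement lowers TR-FRET signal; IC50 (μM) and Emax (%) derived.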

human RORγt [3] = target: T1, human RORγt; experiment: IL-17 secretion from EL4 murine lymphoma overexpressing human RORγt; assay type: cell-based; design: V5-His (named only through the vector pcDNA3.1D/V5-His-TOPO); expressed in transfected cells; settings: IL-17 secretion inhibition in human RORγt-transfected EL4 Tcells, PMA/ionomycin stimulation
Experimental: Murine EL-4 lymphoma cell line overexpressing human RORγt was used in this functional assay to assess compound ability to inhibit IL-17 cytokine secretion.
EL-4 cells are maintained in a standard culture medium RPMI supplemented with 10% fetal calf serum, 1% sodium pyruvate, 1% essential amino acids and 1% antibiotics at 37° C. in a humidified atmosphere of 5% CO2 and 95% air. Culture medium was changed every 2 days. EL4 cells were transfected with a plasmid encoding hRORγt (sequence identical to published sequence NM 001001523). […] Briefly, 1 μg of DNA/1 million cells was served to transfect EL-4 cells. Cell/DNA suspension was transferred into certified cuvette and the electroporation of RORγt plasmid was carried out using appropriate Nucleofector® program.
Cells were seeded in 96 well plates at a density of 150000 cells/well then treated with compounds of this invention at indicated concentrations and incubated for 24 hours at 37° C. in a humidified atmosphere of 5% CO2 and 95% air. EL-4 cells were pretreated with test compounds (RORγ modulators) and stimulated with PMA (10 ng/mL) and ionomycin (1 μM final concentration) in the presence of test compound concentrations for additional 24 h at 37° C. in a humidified atmosphere of 5% CO2 and 95% air. Subsequently, supernatants were collected (after centrifugation at 300 g for 10 minutes) to determine the concentrations of IL-17 by HTRF (CisBio, France) or ELISA (R&D Systems Europe) according to the manufacturer's protocols.

Cc1ccc(C(NC(=O)C2(c3ccc(N4CCS(=O)(=O)CC4)cc3)CC2)c2ccc(Cl)o2)c(C)c1 (stereo not drawn) [Cpd. 66, N-[(5-chlorofuran-2-yl)(2,4-dimethylphenyl)methyl]-1-[4-(1,1-dioxo-1-thiomorpholin-4-yl)phenyl]cyclopropane-1-carboxamide] showed an IC50 (human RORγt [1]) of under 100 nM, an IC50 [2] of under 1000 nM and an IC50 (human RORγt [3]) of under 1000 nM.
With COc1ccc(C(NC(=O)Cc2ccc(N3CCS(=O)(=O)CC3)c(C)c2)c2ccc(C)o2)c(N2CC3CC3C2)c1 (stereo not drawn) [Cpd. 16, N-[(2-{3-azabicyclo[3.1.0]hexan-3-yl}-4-methoxyphenyl)(5-methylfuran-2-yl)methyl]-2-[4-(1,1-dioxo-1-thiomorpholin-4-yl)-3-methylphenyl]acetamide] the IC50 (human RORγt [1]) was 100 to 1000 nM, the IC50 [2] was under 1000 nM and the IC50 (human RORγt [3]) was under 1000 nM.
Molecule Cc1ccc(C(NC(=O)Cc2ccc(N3CCS(=O)(=O)CC3)c(C)c2)c2ccc(C)o2)c(C(F)(F)F)c1 (stereo not drawn) [Cpd. 10, 2-[4-(1,1-dioxo-1-thiomorpholin-4-yl)-3-methylphenyl]-N-{[4-methyl-2-(trifluoromethyl)phenyl](5-methylfuran-2-yl)methyl}acetamide] has an IC50 (human RORγt [1]) of 100 to 1000 nM, an IC50 [2] of 100 to 1000 nM and an IC50 (human RORγt [3]) of 100 to 1000 nM.
Cc1ccc(C(NC(=O)Cc2ccc(N3CCS(=O)(=O)CC3)cc2)c2ccc(C)o2)c(N2CCCCC2)c1 (stereo not drawn) [Cpd. 6, 2-[4-(1,1-dioxo-1-thiomorpholin-4-yl)phenyl]-N-{[4-methyl-2-(piperidin-1-yl)phenyl](5-methylfuran-2-yl)methyl}acetamide] showed an IC50 (human RORγt [1]) of under 100 nM, an IC50 [2] of under 1000 nM and an IC50 (human RORγt [3]) of under 1000 nM.
Cc1ccc(C(NC(=O)Cc2ccc(N3CCS(=O)(=O)CC3)c(C)c2)c2ccc(C)o2)c(Br)c1 (stereo not drawn) [Cpd. 11, N-[(2-bromo-4-methylphenyl)(5-methylfuran-2-yl)methyl]-2-[4-(1,1-dioxo-1-thiomorpholin-4-yl)-3-methylphenyl]acetamide] was tested, and the IC50 (human RORγt [1]) was 100 to 1000 nM, the IC50 [2] was under 1000 nM and the IC50 (human RORγt [3]) was 100 to 1000 nM.
In the case of Cc1ccc(C(NC(=O)C2(c3cnc(N4CCS(=O)(=O)CC4)nc3)CC2)c2ccc(C)o2)c(C)c1 (stereo not drawn) [Cpd. 48, N-[(2,4-dimethylphenyl)(5-methylfuran-2-yl)methyl]-1-[2-(1,1-dioxo-1-thiomorpholin-4-yl)pyrimidin-5-yl]cyclopropane-1-carboxamide], the IC50 (human RORγt [1]) is reported as under 100 nM, the IC50 [2] is reported as under 1000 nM and the IC50 (human RORγt [3]) is reported as under 1000 nM.
Work on Cc1ccc(C(NC(=O)Cc2ccc(N3CCS(=O)(=O)CC3)c(C)c2)c2ccc(C)o2)c(N2CCCCC2)c1 (stereo not drawn) [Cpd. 12, 2-[4-(1,1-dioxo-1-thiomorpholin-4-yl)-3-methylphenyl]-N-{[4-methyl-2-(piperidin-1-yl)phenyl](5-methylfuran-2-yl)methyl}acetamide] yielded an IC50 (human RORγt [1]) of under 100 nM, an IC50 [2] of under 1000 nM and an IC50 (human RORγt [3]) of under 1000 nM.
Cc1ccc(C(NC(=O)Cc2cc(N3CCS(=O)(=O)CC3)ccc2C)c2ccc(C)o2)c(N2CCCCC2)c1 (stereo not drawn) [Cpd. 5, 2-[5-(1,1-dioxo-1-thiomorpholin-4-yl)-2-methylphenyl]-N-{[4-methyl-2-(piperidin-1-yl)phenyl](5-methylfuran-2-yl)methyl}acetamide] was tested, and the IC50 (human RORγt [1]) was 100 to 1000 nM, the IC50 [2] was 100 to 1000 nM and the IC50 (human RORγt [3]) was 100 to 1000 nM.
CC(C)CC(NC(=O)C1(c2ccc(N3CCS(=O)(=O)CC3)cc2)CC1)c1ccccc1N1CCCCC1 (stereo not drawn) [Cpd. 59, 1-[4-(1,1-dioxo-1-thiomorpholin-4-yl)phenyl]-N-[3-methyl-1-[2-(piperidin-1-yl)phenyl]butyl]cyclopropane-1-carboxamide] gave an IC50 (human RORγt [1]) of 1000 to 10000 nM, an IC50 [2] of 100 to 1000 nM and an IC50 (human RORγt [3]) of 100 to 1000 nM.
Molecule Cc1ccc(C(NC(=O)Cc2ccc(O)c(N3CCS(=O)(=O)CC3)c2)c2ccc(C)o2)c(N2CCCCC2)c1 (stereo not drawn) [Cpd. 39, 2-[3-(1,1-dioxo-1-thiomorpholin-4-yl)-4-hydroxyphenyl]-N-{[4-methyl-2-(piperidin-1-yl)phenyl](5-methylfuran-2-yl)methyl}acetamide] has an IC50 (human RORγt [1]) of under 100 nM, an IC50 [2] of under 1000 nM and an IC50 (human RORγt [3]) of under 1000 nM.
Work on Cc1ccc(C(NC(=O)C2(c3cnc(N4CCS(=O)(=O)CC4)nc3)CC2)c2ccc(Cl)cc2Cl)o1 (stereo not drawn) [Cpd. 54, N-[(2,4-dichlorophenyl)(5-methylfuran-2-yl)methyl]-1-[2-(1,1-dioxo-1-thiomorpholin-4-yl)pyrimidin-5-yl]cyclopropane-1-carboxamide] yielded an IC50 (human RORγt [1]) of 100 to 1000 nM, an IC50 [2] of under 1000 nM and an IC50 (human RORγt [3]) of 100 to 1000 nM.
For Cc1ccc(C(NC(=O)Cc2cnc(N3CCS(=O)(=O)CC3)nc2C)c2ccc(C)o2)c(N2CCCCC2)c1 (stereo not drawn) [Cpd. 38, 2-[2-(1,1-dioxo-1-thiomorpholin-4-yl)-4-methylpyrimidin-5-yl]-N-{[4-methyl-2-(piperidin-1-yl)phenyl](5-methylfuran-2-yl)methyl}acetamide], the IC50 (human RORγt [1]) was under 100 nM, the IC50 [2] was under 1000 nM and the IC50 (human RORγt [3]) was under 1000 nM.
In the case of Cc1ccc(C(NC(=O)C2(c3cnc(N4CCS(=O)(=O)CC4)nc3)CC2)c2ccc(C)o2)c(Cl)c1 (stereo not drawn) [Cpd. 52, N-[(2-chloro-4-methylphenyl)(5-methylfuran-2-yl)methyl]-1-[2-(1,1-dioxo-1-thiomorpholin-4-yl)pyrimidin-5-yl]cyclopropane-1-carboxamide], the IC50 (human RORγt [1]) is reported as 1000 to 10000 nM, the IC50 [2] is reported as under 1000 nM and the IC50 (human RORγt [3]) is reported as 100 to 1000 nM.
With Cc1ccc(C(NC(=O)Cc2ccc(N3CCS(=O)(=O)CC3)cc2)c2ccccc2)c(N2CC3CC3C2)c1 (stereo not drawn) [Cpd. 22, N-[(2-{3-azabicyclo[3.1.0]hexan-3-yl}-4-methylphenyl)(phenyl)methyl]-2-[4-(1,1-dioxo-1-thiomorpholin-4-yl)phenyl]acetamide] the IC50 (human RORγt [1]) was under 100 nM, the IC50 [2] was under 1000 nM and the IC50 (human RORγt [3]) was 100 to 1000 nM.
With Cc1ccc(C(NC(=O)Cc2cnc(N3CCS(=O)(=O)CC3)nc2)c2ccc(C)o2)c(N2CCCCC2)c1 (stereo not drawn) [Cpd. 20, 2-[2-(1,1-dioxo-1-thiomorpholin-4-yl)pyrimidin-5-yl]-N-{[4-methyl-2-(piperidin-1-yl)phenyl](5-methylfuran-2-yl)methyl}acetamide] the IC50 (human RORγt [1]) was under 100 nM, the IC50 [2] was under 1000 nM and the IC50 (human RORγt [3]) was under 1000 nM.
Work on Cc1ccc(C(NC(=O)C2(c3cnc(N4CCS(=O)(=O)CC4)nc3)CC2)c2ccc(Cl)cc2C)o1 (stereo not drawn) [Cpd. 53, N-[(4-chloro-2-methylphenyl)(5-methylfuran-2-yl)methyl]-1-[2-(1,1-dioxo-1-thiomorpholin-4-yl)pyrimidin-5-yl]cyclopropane-1-carboxamide] yielded an IC50 (human RORγt [1]) of under 100 nM, an IC50 [2] of under 1000 nM and an IC50 (human RORγt [3]) of 100 to 1000 nM.
Molecule Cc1ccc(C(NC(=O)C2(c3ccc(N4CCS(=O)(=O)CC4)cc3)CC2)c2ccccc2N2CCCCC2)o1 (stereo not drawn) [Cpd. 60, 1-[4-(1,1-dioxo-1-thiomorpholin-4-yl)phenyl]-N-[(5-methylfuran-2-yl)[2-(piperidin-1-yl)phenyl]methyl]cyclopropane-1-carboxamide] has an IC50 (human RORγt [1]) of 100 to 1000 nM, an IC50 [2] of under 1000 nM and an IC50 (human RORγt [3]) of under 1000 nM.
Cc1ccc(C(NC(=O)Cc2cc(N3CCS(=O)(=O)CC3)ccc2C)c2ccc(C)o2)c(N2CC3CC3C2)c1 (stereo not drawn) [Cpd. 28, N-[(2-{3-azabicyclo[3.1.0]hexan-3-yl}-4-methylphenyl)(5-methylfuran-2-yl)methyl]-2-[5-(1,1-dioxo-1-thiomorpholin-4-yl)-2-methylphenyl]acetamide] showed an IC50 (human RORγt [1]) of 100 to 1000 nM, an IC50 [2] of under 1000 nM and an IC50 (human RORγt [3]) of 100 to 1000 nM.

Reference: patent publication US11077115B2, “Rorgamma modulators and uses thereof” (Genfit, priority 2017, dated 2021)
